Measured values reported in US11691981B2, “Heterocyclic compounds, preparation methods therefor, and methods of uses thereof” (INVENTISBIO CO., LTD., priority 2019, dated 2023).

Tests used:
[1] = target: TGFβR2 (Homo sapiens (Human), UniProt P37173); test: TGFβR2 kinase inhibition assay (ADP-Glo); assay type: biochemical; details: 10 uM ATP, 120 min room temperature
Description: The TGFβR2 enzyme reaction was carried out as follows: 50 nL of compound in DMSO (or DMSO controls) were stamped into 384 white, low-volume plates. 2.5 μL of 2× enzyme solution (final enzyme concentration was 3 ng/uL in 40 mMTris, 7.5; 20 mM MgCl2; 0.1 mg/mL BSA; 1 mM DTT) was dispensed into assay plate. The plate was then sealed and spun at 1000 rpm for 30 s and incubated at room temperature for 10 min. Followed by addition of 2.5 μL of 2× substrate solution that contains both ATP (to make a final concentration of 10 uM) and TGFβR2 substrate (final concentration of 0.2 ug/uL). The plate was then sealed and spun at 1000 rpm for 30 s and the reaction was then incubated at room temperature for 120 min. After that 5 μL ADP-Glo™ Reagent was added into the assay wells to stop the reaction and deplete unconsumed ATP for 40 min at room temperature; then, 10 μL of Detection Reagent was added into the assay wells, followed by 40 min incubation to develop luminescence. The luminescence signal was then collected on Envision 2104 plate reader.

[2] = test system: P-glycoprotein (MDR1); test: P-glycoprotein substrate potential / permeability in MDR1-transfected MDCK cells; assay type: in vitro ADME; details: dog, pH 7.4; for Papp A→B at 2 h, 1 µM / Papp B→A at 2 h, 1 µM: MDCK-MDR1, 1 μM, two hours; for Papp A→B at 2 h, 1 µM: apical to basolateral; for Papp B→A at 2 h, 1 µM: basolateral to apical; for efflux ratio at 2 h, 1 µM: MDCK-MDR1, Papp (B-A)/Papp (A-B)
Description: (§1) MDCK-MDR1 cells were seeded into 96-well HTS Transwell plate at the density of 5.45×10^5/cm^2. Cells were cultivated for 4-7 days before the transport assay. Transepithelial electrical resistance (TEER) of MDCK-MDR1 monolayer was measured before the experiment with the Millicell Epithelial Volt-Ohm measuring system.
(§2) Transport assay: Cell monolayers were pre-incubated in transport medium (TM, HBSS with 25 mM HEPES, pH 7.4) for 30 min at 37° C. After preincubation, the study was initiated by adding the test compound to the donor side and TM to the receiver side. Compound transport was assessed at 1 μM in two directions (apical, AP to basolateral, BL and BL to AP) and the study was carried out in the presence and absence of P-gp inhibitor verapamil in both AP and BL compartments. After two hours incubation, aliquots of 50 μL from donor or receiver side were removed and mixed with 4 volumes of acetonitrile containing internal standards (200 nM alprazolam, 200 nM labetalol, 2 μM ketoprofen). Samples were analyzed by UPLC-MS/MS. All incubations were performed in duplicate. After the transport experiment, Lucifer Yellow leakage was measured in a fluorescence plate reader at 485 nm excitation and 530 nm emission.
(§3) Data Analysis: All calculations were carried out using Microsoft Excel. Peak areas are determined from extracted ion chromatograms.
(§4) The apparent permeability coefficient (Papp), in units of centimeter per second, was calculated for MDCK-MDR1 drug transport assays using the following equation: […]
(§5) Where VA is the volume (in mL) in the acceptor well, Area is the surface area of the membrane (0.143 cm2 for Transwell-96 Well Permeable Supports), and time is the total transport time in seconds.
(§6) The efflux ratio was determined using the following equation: […]
(§7) Where Papp (B-A) indicates the apparent permeability coefficient in basolateral to apical direction, and Papp (A-B) indicates the apparent permeability coefficient in apical to basolateral direction.

[3] = Human hepatocyte clearance study; assay type: in vitro ADME; details: pooled cryopreserved human hepatocytes (suspension); for hepatocyte CLint at 1 µM / half-life at 1 µM: human; for hepatocyte CLint at 1 µM: read-out: Human In vitro Clint; for half-life at 1 µM: read-out: Human In vitro T1/2; for CLint scaled at 1 µM: human hepatocytes, scaling factor 2544.3, read-out: Human Scale-up Clint
Description: (§8) The in vitro human hepatocyte clearance of compounds described here was studied using pooled human hepatocytes purchased from BioreclamationIVT (Westbury, N.Y., Cat #X008001, Lot #TQJ). The assay was conducted according to manufacturer's instruction. Briefly, 10 mM stock solutions of test compounds and positive control (Verapamil) were prepared in 100% DMSO. Thawing media (50 mL) used in the study consists of: 31 mL Williams E medium (GIBCO Cat #12551-032); 15 mL isotonic percoll (GE Healthcare Cat #17-0891-09); 500 uL 100× GlutaMax (GIBCO Cat #35050); 750 uL HEPES (GIBCO Cat #15630-080); 2.5 mL FBS (Corning Cat #35-076-CVR); 50 uL human insulin (GIBCO Cat #12585-014) and 5 uL dexamethasone (NICPBP). Incubation media is made of Williams E medium supplemented with 1× GlutaMax. Both thawing medium and incubation medium (serum-free) were placed in a 37° C. water bath for at least 15 minutes prior to use. Compound stock solutions were diluted to 100 μM by combining 198 μL of 50% acetonitrle/50% water and 2 μL of 10 mM stock solution. Verapamil was use as positive control in the assay. Vials of cryopreserved hepatocytes were removed from storage and thawed in a 37° C. water bath with gentle shaking. Contents of the vial were poured into the 50 mL thawing medium conical tube. Vials were centrifuged at 100 g for 10 minutes at room temperature. Thawing medium was aspirated and hepatocytes were re-suspended with serum-free incubation medium to yield ˜1.5×10^6 cells/mL. Hepatocyte viability and density were counted using a Trypan Blue exclusion, and then cells were diluted with serum-free incubation medium to a working cell density of 0.5×10^6 viable cells/mL. Then, a portion of the hepatocytes at 0.5×10^6 viable cells/mL was boiled for 5 minutes prior to adding to the plate as negative control to eliminate the enzymatic activity so that little or no substrate turnover should be observed. The boiled hepatocytes were used to prepare negative samples. Aliquots of 198 μL hepatocytes were dispensed into each well of a 96-well non-coated plate. The plate was placed in the incubator on an orbital shaker at 500 rpm for approximately 10 minutes. Aliquots of 2 μL of the 100 μM test compound or positive control were added into respective wells of the non-coated 96-well plate to start the reaction. This assay was performed in duplicate. The plate was incubated in the incubator on an orbital shaker at 500 rpm for the designated time points. Twenty-five microliter of contents were transferred and mixed with 6 volumes (150 μL) of cold acetonitrile with IS (200 nM imipramine, 200 nM labetalol and 200 nM diclofenac) to terminate the reaction at time points of 0, 15, 30, 60, 90 and 120 minutes. Samples were centrifuged at 3,220 g for 25 minutes and aliquots of 150 μL of the supernatants were used for LC-MS/MS analysis. For data analysis, all calculations were carried out using Microsoft Excel. Peak areas were determined from extracted ion chromatograms. The in vitro half-life (t1/2) of parent compound was determined by regression analysis of the percent parent disappearance vs. time curve. The in vitro half-life (in vitro ti) was determined from the slope value: in vitro t1/2=0.693/k. […] Scaling factors for in vivo intrinsic clearance prediction using human hepatocytes are listed as: liver weight (g liver/kg body weight): 25.7; hepatocyte concentration (10^6 cells/g liver): 99; scaling factor: 2544.3.

[4] = test system: pooled human hepatocytes; test: Human hepatocyte clearance study; assay type: in vitro ADME; details: human hepatocytes; for Human Hepatocyte Remaining Percentage @ 120 min: 0.5×10^6 viable cells/mL
Description: as §8

[5] = target: TGFβR1 (Homo sapiens (Human), UniProt P36897); test: TGFβR1 kinase inhibition assay (ADP-Glo Kinase Assay); assay type: biochemical; details: 40 nM TGFβR1 in 2x enzyme mix, 5.4 μM ATP in 2x substrate mix, 120 min RT
Chain of TGFβR1 (P36897 34-503): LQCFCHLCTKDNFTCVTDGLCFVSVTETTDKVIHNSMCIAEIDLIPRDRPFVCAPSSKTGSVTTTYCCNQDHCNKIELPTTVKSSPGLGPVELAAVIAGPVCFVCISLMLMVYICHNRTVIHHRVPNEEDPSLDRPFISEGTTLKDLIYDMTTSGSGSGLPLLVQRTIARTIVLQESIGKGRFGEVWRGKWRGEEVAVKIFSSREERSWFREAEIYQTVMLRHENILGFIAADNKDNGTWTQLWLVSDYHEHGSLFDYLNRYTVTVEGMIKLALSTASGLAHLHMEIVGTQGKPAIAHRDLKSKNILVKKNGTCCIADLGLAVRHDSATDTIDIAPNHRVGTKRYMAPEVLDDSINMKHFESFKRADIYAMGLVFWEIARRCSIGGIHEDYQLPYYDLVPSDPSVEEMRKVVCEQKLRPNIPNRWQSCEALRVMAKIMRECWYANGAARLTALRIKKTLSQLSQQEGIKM
Description: TGFβR1 kinase assay was performed according to the instruction manual of the ADP-Glo™ Kinase Assay kit provided by Promega. Prepare 1× Kinase buffer (50 mM Tris pH7.5, 0.1% BSA, 10 mM MgCl2, 1 mM DTT). Before activation reaction was started, Compounds were dissolved in DMSO and make 100× solution with 3-fold serial dilution for a total of 10 concentrations. Transfer 50 nL compounds to 384-well plate according to plate map using the automated liquid handler. […] Add 5 μL ADP-Glo Reagent to terminate the kinase reaction and deplete the remaining ATP, incubate at RT for 60 minutes. Add 10 μL Kinase Detection Reagent to convert ADP to ATP and allow the newly synthesized ATP to be measured using a luciferin reaction, incubate at RT for 30 minutes. Collect luminescence data with Envision.

[6] = test system: MDCK-MDR1 cells; test: P-glycoprotein substrate potential / permeability in MDR1-transfected MDCK cells; assay type: in vitro ADME
Description: as §1, §2, §3, §4, §5, §6, §7

Chain of TGFβR2 (P37173 23-567): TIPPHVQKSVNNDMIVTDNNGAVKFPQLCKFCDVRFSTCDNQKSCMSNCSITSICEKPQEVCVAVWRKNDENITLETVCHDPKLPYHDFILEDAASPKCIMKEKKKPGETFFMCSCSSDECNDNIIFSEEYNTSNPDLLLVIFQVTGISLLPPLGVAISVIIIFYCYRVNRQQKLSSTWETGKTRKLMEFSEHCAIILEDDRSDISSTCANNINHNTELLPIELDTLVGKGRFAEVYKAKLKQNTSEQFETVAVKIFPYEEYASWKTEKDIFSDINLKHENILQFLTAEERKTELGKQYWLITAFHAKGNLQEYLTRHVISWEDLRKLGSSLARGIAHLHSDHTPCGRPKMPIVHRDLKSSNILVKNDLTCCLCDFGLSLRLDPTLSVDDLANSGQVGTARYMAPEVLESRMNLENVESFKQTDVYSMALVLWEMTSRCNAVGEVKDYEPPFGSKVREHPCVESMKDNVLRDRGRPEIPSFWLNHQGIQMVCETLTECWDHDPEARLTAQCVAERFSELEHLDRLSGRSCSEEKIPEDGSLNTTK

SMILES | IC50 [1] [nM] | hepatocyte CLint at 1 µM [3] [µL/min/1e6 cells] | half-life at 1 µM [3] [h] | CLint scaled at 1 µM [3] [mL/min/kg] | Human Hepatocyte Remaining Percentage @ 120 min [4] [%] | IC50 [5] [nM] | further results
Cc1ccc(Oc2ccnc(Nc3ccnc(C(C)(C)O)c3)c2)c(C)n1 [Compound 57] | > 100000 | 2.4 | 9.73 | 6 | 89 | 21 | Papp A→B at 2 h, 1 µM [2]: 12.4 ×10⁻⁶ cm/s; Papp B→A at 2 h, 1 µM [2]: 18 ×10⁻⁶ cm/s; efflux ratio at 2 h, 1 µM [2]: 1.46
NS(=O)(=O)c1ccc(Nc2cc(Oc3cc(C(F)(F)F)nn3C3CCOCC3)ccn2)cc1 [Compound 12] | > 100000 | 7.7 | 3 | 19.6 | 64 | 28 | 
CC(C)(O)c1cc(Nc2cc(Oc3cccnc3C3CCOCC3)ccn2)ccn1 [Compound 54] | > 100000 | 6.8 | 3.38 | 17.4 | 61 | 56 | 
CC(C)(O)c1cc(Nc2cc(Oc3cn(C4CC4)nc3C3CCOCC3)ccn2)ccn1 [Compound A, 2-(4-((4-((1-cyclopropyl-3-(tetrahydro-2H-pyran-4-yl)-1H-pyrazol-4-yl)oxy)pyridin-2-yl)amino)pyridin-2-yl)propan-2-ol, reference compound] |  | 12.5 | 1.85 | 31.7 | 48 |  | Papp A→B at 2 h, 1 µM [2]: 2.75 ×10⁻⁶ cm/s; Papp B→A at 2 h, 1 µM [2]: 37.8 ×10⁻⁶ cm/s; efflux ratio at 2 h, 1 µM [2]: 13.7
CC(C)(O)c1cc(Nc2cc(Oc3cc(C(F)(F)F)nn3C3CC3)ccn2)ccn1 [Compound 7] | > 100000 |  |  |  |  | 557 | 
CC1(C)OC(=O)c2ccc(Nc3cc(Oc4cn(C5CC5)nc4C4CCOCC4)ccn3)cc21 [Compound 79] | 73000 |  |  |  |  | 29 | 
NS(=O)(=O)c1ccc(Nc2cc(Oc3cc(C4CC4)nn3C3CCOCC3)ccn2)cc1 [Compound 14] | > 100000 |  |  |  |  | 37 | 
NS(=O)(=O)c1ccc(Nc2cc(Oc3cc(C4CC4)nn3C3CC3)ccn2)cc1 [Compound 13] | > 100000 | 7.5 | 3.08 | 19 | 65 | 44 | 
CC(C)(O)c1cc(Nc2cc(Oc3cc(C(F)(F)F)nn3-c3ccccc3)ccn2)ccn1 [Compound 17] | 1000 |  |  |  |  | 12 | 
N#Cc1cccc(Nc2cc(Oc3cc(C(F)(F)F)nn3C3CCOCC3)ccn2)c1 [Compound 9] | > 100000 |  |  |  |  | 163 | 
CC(C)(O)c1cc(Nc2cc(Oc3cc(C(F)(F)F)nn3C3CCOCC3)ccn2)ccn1 [Compound 2] |  |  |  |  | 72 | 53 | Papp (A-B) ([6]; MDCK-MDR1, 1 μM, apical to basolateral, two hours): 4.95 10^−6, cm/s; Papp (B-A) ([6]; MDCK-MDR1, 1 μM, basolateral to apical, two hours): 14.87 10^−6, cm/s; Efflux Ratio ([6]; MDCK-MDR1, Papp (B-A)/Papp (A-B)): 3.00; Human In vitro Clint [4]: 5.6 μL/min/10^6 cells; Human In vitro T1/2 [4]: 4.1 h; Human Scale-up Clint ([4]; scaling factor 2544.3): 14.3 mL/min/kg
CC(C)(O)c1cc(Nc2cc(Oc3cc(C(F)(F)F)nn3-c3ccccc3F)ccn2)ccn1 [Compound 38] | 15000 |  |  |  |  | 18 | 
Cn1nc(C(F)(F)F)cc1Oc1ccnc(Nc2ccnc(C(C)(C)O)c2)c1 [Compound 23] |  | 2.2 | 10.4 | 5.6 | 88 | 38 | 
CC(C)(O)c1cc(Nc2cc(Oc3cc(C(F)(F)F)nn3-c3ccccn3)ccn2)ccn1 [Compound 41] | 15000 |  |  |  |  | 12 | Papp A→B at 2 h, 1 µM [2]: 3.63 ×10⁻⁶ cm/s; Papp B→A at 2 h, 1 µM [2]: 4.88 ×10⁻⁶ cm/s; efflux ratio at 2 h, 1 µM [2]: 1.35
CC(C)(O)c1cc(Nc2cc(Oc3cc(C(F)F)nn3C3CCOCC3)ccn2)ccn1 [Compound 8] | > 100000 |  |  |  |  | 173 | 
CC(C)(O)c1cc(Nc2cc(Oc3cc(C4CC4)nn3[C@H]3C[C@H]4CC[C@@H](C3)O4)ccn2)ccn1 [Compound 28] | 36000 |  |  |  |  | 35 | 
CC(C)(O)c1ccc(Nc2cc(Oc3cc(C(F)(F)F)nn3C3CCOCC3)ccn2)cn1 [Compound 11] | > 100000 | 5.7 | 4.03 | 14.6 | 71 | 24 | Papp A→B at 2 h, 1 µM [2]: 7.38 ×10⁻⁶ cm/s; Papp B→A at 2 h, 1 µM [2]: 6.24 ×10⁻⁶ cm/s; efflux ratio at 2 h, 1 µM [2]: 0.85
